Data published in PMC5824344 (ACS Chemical Biology, 2017).

What was measured:
[1] = system: GluI and GluII in human hepatoma Huh7.5 cells; test: Free oligosaccharide (FOS) assay in Huh7.5 cells; type: cell-based; conditions: naive Huh7.5 cells, 48 h, 50 µm
Description: (§1) 5 Cell and Virus Culture and Assays
(§2) 5.1 Culture of Cell Lines
The human hepatoma cell line Huh7.5 (Apath, LLC) was cultured in Dulbecco’s modiﬁed Eagle medium (DMEM) with Glutamax (Gibco) supplemented with 100 µg mL−1 strepto-mycin (Sigma), 100 U mL−1 penicillin (Sigma), 100 µm MEM non-essential amino acids (Gibco) and 10% (volume/volume, v/v) heat-inactivated (56 ◦C, 30 min) fetal calf serum (FCS, Seralab). The human monocytic cell line HL60 (ATCC), human T lymphocyte cell line Jurkat (ATCC), and human B lymphocyte cell line Raji (ATCC) were each maintained in RPMI 1640 media with Glutamax (Gibco) supplemented with 100 µg mL−1 streptomycin, 100 U mL−1 penicillin and 10% (v/v) FCS. The monkey kidney cell line LLC-MK2 (a gift from Armed Forces Research Institute of Medical Sciences, Thailand) was cultured in M199 media (Gibco) supplemented with 2 mm l-glutamine, 100 µg mL−1 streptomycin, 100 U mL−1 penicillin and 20% (v/v) FCS. Subsequently, these are referred to as growth media for each cell line. Unless otherwise indicated, all cell incubations were carried out at 37 ◦C and 5% CO2. […]
(§3) Cell viability was measured using the CellTiter 96 R© AQueous One Solution Cell Prolifera-tion MTA (3-(4,5-dimethylthiazol-2-yl)-5-(3-carboxymethoxyphenyl)-2-(4-sulfophenyl)-2H - […]
(§4) After a further one to two hour incubation, the absorbance at 490 nm was measured on a Molecular Devices SpectraMax M5 microplate reader. […]
(§5) Absorbances were averaged across replicates, and corrected for background by subtracting the value for media-only wells. Each drug treatment was then evaluated as a percentage of untreated cells. […]
FOS analysis was carried out as described previously. […] Before purifying the FOS, each sample was analyzed for protein content using the modiﬁed Bradford assay. […] The labelled glycans were then analyzed by normal phase high performance liquid chromatography. Retention times and peak area were used to identify and quantify glycans, respectively, by comparison to standards of known identity and molar quantity. FOS quantities were normalized to protein levels.

[2] = target: T1, Rat intestinal cellobiase (Rattus norvegicus, UniProt Q02401); test: Inhibition of rat intestinal cellobiase (β-glucosidase; natural substrate, glucose release); type: biochemical; conditions: read-out: inhibition of intestinal cellobiase at the maximum tested concentration
T1 sequence (Q02401 868-1928): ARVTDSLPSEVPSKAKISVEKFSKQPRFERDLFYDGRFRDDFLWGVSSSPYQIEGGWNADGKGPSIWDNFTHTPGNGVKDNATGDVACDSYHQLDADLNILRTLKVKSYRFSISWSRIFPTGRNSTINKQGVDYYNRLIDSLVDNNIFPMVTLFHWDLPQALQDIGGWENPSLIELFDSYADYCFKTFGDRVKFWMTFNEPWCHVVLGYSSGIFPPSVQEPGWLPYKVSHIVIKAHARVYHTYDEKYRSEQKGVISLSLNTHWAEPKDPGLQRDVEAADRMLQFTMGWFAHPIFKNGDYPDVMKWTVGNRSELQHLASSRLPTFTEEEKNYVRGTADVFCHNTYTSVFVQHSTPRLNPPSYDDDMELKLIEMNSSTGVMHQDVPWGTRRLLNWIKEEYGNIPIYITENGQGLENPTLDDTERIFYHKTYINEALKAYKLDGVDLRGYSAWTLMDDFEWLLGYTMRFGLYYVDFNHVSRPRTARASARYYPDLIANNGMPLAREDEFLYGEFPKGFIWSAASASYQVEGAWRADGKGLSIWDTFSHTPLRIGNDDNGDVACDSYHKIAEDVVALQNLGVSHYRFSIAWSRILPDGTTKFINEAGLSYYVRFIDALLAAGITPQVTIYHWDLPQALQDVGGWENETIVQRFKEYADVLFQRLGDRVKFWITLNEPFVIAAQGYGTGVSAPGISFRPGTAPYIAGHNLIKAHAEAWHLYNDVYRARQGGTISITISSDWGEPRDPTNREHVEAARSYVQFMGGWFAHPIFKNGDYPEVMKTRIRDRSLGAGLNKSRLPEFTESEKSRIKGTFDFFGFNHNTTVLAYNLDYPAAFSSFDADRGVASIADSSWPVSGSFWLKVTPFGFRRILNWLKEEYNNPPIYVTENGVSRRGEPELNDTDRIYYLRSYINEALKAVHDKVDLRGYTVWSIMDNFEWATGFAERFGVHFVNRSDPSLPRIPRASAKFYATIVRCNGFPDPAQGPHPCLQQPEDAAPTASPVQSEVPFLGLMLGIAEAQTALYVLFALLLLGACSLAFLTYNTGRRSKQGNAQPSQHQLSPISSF

[3] = system: GluI and GluII in Jurkat (T lymphocyte) cells; test: Free oligosaccharide (FOS) assay in Jurkat cells; type: cell-based, human; conditions: 48 h, 50 µm
Description: as §1, §2
(§6) The human hepatoma cell line Huh7.5 (Apath, LLC) was cultured in Dulbecco’s modiﬁed Eagle medium (DMEM) with Glutamax (Gibco) supplemented with 100 µg mL−1 strepto-mycin (Sigma), 100 U mL−1 penicillin (Sigma), 100 µm MEM non-essential amino acids (Gibco) and 10% (volume/volume, v/v) heat-inactivated (56 ◦C, 30 min) fetal calf serum (FCS, Seralab). The human monocytic cell line HL60 (ATCC), human T lymphocyte cell line Jurkat (ATCC), and human B lymphocyte cell line Raji (ATCC) were each maintained in RPMI 1640 media with Glutamax (Gibco) supplemented with 100 µg mL−1 streptomycin, 100 U mL−1 penicillin and 10% (v/v) FCS. […]
as §3, §4, §5
(§7) FOS analysis was carried out as described previously. […] Before purifying the FOS, each sample was analyzed for protein content using the modiﬁed Bradford assay. […]

[4] = system: GluI and GluII in Raji (B lymphocyte) cells; test: Free oligosaccharide (FOS) assay in Raji cells; type: cell-based, human; conditions: 48 h, 50 µm
Description: as §1, §2, §6, §3, §4, §5, §7

Row | Structure (SMILES) | glucosylated free oligosaccharides (FOS) observed after treatment [1] | inhibition at 50 µM [2] | glucosylated free oligosaccharides (FOS) observed after treatment ([1]; listed as ToP-DNJ 4) | glucosylated free oligosaccharides (FOS) observed after treatment [3] | glucosylated free oligosaccharides (FOS) observed after treatment ([3]; listed as ToP-DNJ 4) | glucosylated free oligosaccharides (FOS) observed after treatment [4] | glucosylated free oligosaccharides (FOS) observed after treatment ([4]; listed as ToP-DNJ 4)
1 | CCCCN1CC(O)C(O)C(O)C1CO [Compound 2, N-butyl-D-1-deoxynojirimycin, reference compound] | inhibits both enzymes | – | – | – | – | – | –
2 | Cc1c(C)c2c(c(C)c1OCCCCCN1CC(O)C(O)C(O)C1CO)CCC(C)(CCCC(C)CCCC(C)CCCC(C)C)O2 (centres unmarked) [Compound 4, 5′-tocopheroxypentyl-DNJ] | no glucosylated FOS were observed | < 50% | no glucosylated FOS were detected | not in Jurkat | no glucosylated FOS were detected | nor Raji | no glucosylated FOS were detected
